Like-named read-outs stand apart in the source and are kept apart here.
Tests used:
[1] = tested on: Key Broadleaf Weed and Crop Species; experiment: Post-emergent Test II herbicidal activity (Table 5); format: in vivo; conditions: post-emergence, 336 h, post-emergent, 14 days after application; for pest or weed control at 70 g/ha: 70 g ai/ha; for pest or weed control at 140 g/ha: 140 g ai/ha
Summary of the method: (§1)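 Injury was rated visually 14 d after treatment on a 0–100% scale against untreated controls. Test compounds, formulated with crop oil concentrate and surfactant and serially diluted down to 1/16× of the top rate, were applied by track sprayer at 187 L/ha onto first- to second-true-leaf seedlings.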

[2] = tested on: Key Grass and Sedge Weeds as well as Grass Crops; experiment: Post-emergent Test II herbicidal activity (Table 6); format: in vivo; conditions: post-emergence, 336 h; for pest or weed control at 70 g/ha: application rate 70 g ai/ha; for pest or weed control at 140 g/ha: application rate 140 g ai/ha
Summary of the method: as §1

[3] = ABUTH: velvetleaf (Abutilon theophrasti), read-out: Visual Growth Reduction (%) 14 Days After Application ABUTH
[4] = AMARE: redroot pigweed (Amaranthus retroflexus), read-out: Visual Growth Reduction (%) 14 Days After Application AMARE
[5] = BRSNN: oilseed-rape, canola (Brassica napus), read-out: Visual Growth Reduction (%) 14 Days After Application BRSNN
[6] = CHEAL: lambsquarters (Chenopodium album), read-out: Visual Growth Reduction (%) 14 Days After Application CHEAL
[7] = EPHHL: wild poinsettia (Euphorbia heterophylla), read-out: Visual Growth Reduction (%) 14 Days After Application EPHHL
[8] = HELAN: sunflower (Helianthus annuus), read-out: Visual Growth Reduction (%) 14 Days After Application HELAN
[9] = VIOTR: wild pansy (Viola tricolor), read-out: Visual Growth Reduction (%) 14 Days After Application VIOTR
[10] = Triticum aestivum, TRZSS (wheat), read-out: Visual Growth Reduction (%) 14 Days After Application, TRZSS
[11] = CYPES: yellow nutsedge (Cyperus esculentus), read-out: Visual Growth Reduction (%) 14 Days After Application, CYPES
[12] = DIGSA: crabgrass (Digitaria sanguinalis), read-out: Visual Growth Reduction (%) 14 Days After Application, DIGSA
[13] = ECHCG: barnyardgrass (Echinochloa crus-galli), read-out: Visual Growth Reduction (%) 14 Days After Application, ECHCG
[14] = ORYSA: rice (Oryza sativa), read-out: Visual Growth Reduction (%) 14 Days After Application, ORYSA
[15] = SETFA: giant foxtail (Setaria faberi), read-out: Visual Growth Reduction (%) 14 Days After Application, SETFA
[16] = SORVU: grain sorghum (Sorghum vulgare), read-out: Visual Growth Reduction (%) 14 Days After Application, SORVU
[17] = ZEAMX: maize, corn (Zea mays), read-out: Visual Growth Reduction (%) 14 Days After Application, ZEAMX

COC(=O)c1nc(-c2ccc(I)cc2)c(C)c(N)c1Cl [Compound 136, methyl 4-amino-3-chloro-6-(4-iodophenyl)-5-methylpicolinate]
pest or weed control at 70 g/ha [1, 3]: 95 to 100%
pest or weed control at 140 g/ha [1, 3]: 95 to 100%
pest or weed control at 70 g/ha [1, 4]: 85 to 94%
pest or weed control at 140 g/ha [1, 4]: 85 to 94%
pest or weed control at 70 g/ha [1, 5]: 85 to 94%
pest or weed control at 140 g/ha [1, 5]: 85 to 94%
pest or weed control at 70 g/ha [1, 6]: 95 to 100%
pest or weed control at 140 g/ha [1, 6]: 95 to 100%
pest or weed control at 70 g/ha [1, 7]: 0 to 29%
pest or weed control at 140 g/ha [1, 7]: 0 to 29%
pest or weed control at 70 g/ha [1, 8]: 95 to 100%
pest or weed control at 140 g/ha [1, 8]: 95 to 100%
pest or weed control at 70 g/ha [1, 9]: 0 to 29%
pest or weed control at 140 g/ha [1, 9]: 0 to 29%
pest or weed control at 70 g/ha [2, 10]: 45 to 59%
pest or weed control at 140 g/ha [2, 10]: 45 to 59%
pest or weed control at 70 g/ha [2, 11]: 95 to 100%
pest or weed control at 140 g/ha [2, 11]: 95 to 100%
pest or weed control at 70 g/ha [2, 12]: 60 to 74%
pest or weed control at 140 g/ha [2, 12]: 60 to 74%
pest or weed control at 70 g/ha [2, 13]: 0 to 29%
pest or weed control at 140 g/ha [2, 13]: 0 to 29%
pest or weed control at 70 g/ha [2, 14]: 0 to 29%
pest or weed control at 140 g/ha [2, 14]: 0 to 29%
pest or weed control at 70 g/ha [2, 15]: 30 to 44%
pest or weed control at 140 g/ha [2, 15]: 45 to 59%
pest or weed control at 70 g/ha [2, 16]: 60 to 74%
pest or weed control at 140 g/ha [2, 16]: 60 to 74%
pest or weed control at 70 g/ha [2, 17]: 60 to 74%
pest or weed control at 140 g/ha [2, 17]: 75 to 84%

Reference: patent US9113629B2, “4-amino-6-(4-substituted-phenyl)-picolinates and 6-amino-2-(4-substituted-phenyl)-pyrimidine-4-carboxylates and their use as herbicides” (DOW AGROSCIENCES LLC, priority 2013, dated 2015)
